# “Also recorded” adds a separate entry of the source. Marks after values point to notes of the source that are not given here.
# How the values were obtained:
# [1] = Safety and tolerability, single ascending dose (Part 1); format: in vivo, human; conditions: for Abdominal pain / Diarrhea / Dizziness / Flatulence / Gastrointestinal disorders / Headache / Hepatobiliary disorders / Hyperbilirubinemia / Jaundice / Nausea / Nervous system disorders / Retching / Subjects with any AE / Vomiting: 6 subjects
# Method: Six volunteers received the active drug at each dose level dissolved in a polyethylene glycol (PEG)/tromethamine (TRIS)/meglumine solution, and two received a placebo. One dose level was tested within each group. Subject groups were dosed and evaluated sequentially, beginning with the lowest-dose group and proceeding stepwise to the highest-dose group. The next higher dose was administered only if no safety concerns arose during treatment of the preceding group.
# Safety was assessed throughout the study by monitoring changes in clinical laboratory parameters (e.g., serum biochemistry, hematology, and urinalysis), 12-lead electrocardiograms, or vital signs (blood pressure, pulse rate, and temperature measurements); monitoring for occurrence of AEs); and carrying out physical examinations.
# CYP2C9 = conditions: therapeutic dose of 120 mg QD; cited from earlier work
smiles,measurement,setting,value
"C=C[C@@H]1C[C@]1(NC(=O)[C@@H]1C[C@@H](Oc2cc(-c3csc(NC(=O)C(C)C)n3)nc3c(Br)c(OC)ccc23)CN1C(=O)[C@@H](NC(=O)OC1CCCC1)C(C)(C)C)C(=O)O [FDV, Faldaprevir]",Subjects with increases in total bilirubin,"[1]; 120 mg, Part 1",two subjects
same,Subjects with increases in total bilirubin,"[1]; 240 mg, Part 1",three subjects
same,Subjects with increases in total bilirubin,"[1]; 480 mg, Part 1",five subjects
same,Subjects with increases in total bilirubin,"[1]; 800 mg, Part 1",six subjects
same,Subjects with increases in total bilirubin,"[1]; 1,200 mg, Part 1",six subjects
same,Subjects with marked hyperbilirubinemia / indirect (unconjugated) bilirubin >3.0 mg/dL,"[1]; 480-mg group, Part 1",two subjects
same,Subjects with marked hyperbilirubinemia / indirect (unconjugated) bilirubin >3.0 mg/dL,"[1]; 1,200-mg group, Part 1",five subjects
same,Abdominal pain,[1]; FDV 4 mg,0 n (%)
same,Diarrhea,[1]; FDV 4 mg,0 n (%)
same,Dizziness,[1]; FDV 4 mg,0 n (%)
same,Flatulence,[1]; FDV 4 mg,0 n (%)
same,Gastrointestinal disorders,[1]; FDV 4 mg,1 (16.7) n (%)
same,Headache,[1]; FDV 4 mg,1 (16.7) n (%)
same,Hepatobiliary disorders,[1]; FDV 4 mg,0 n (%)
same,Hyperbilirubinemia,[1]; FDV 4 mg,0 n (%)
same,Jaundice,[1]; FDV 4 mg,0 n (%)
same,Nausea,[1]; FDV 4 mg,1 (16.7) n (%)
same,Nervous system disorders,[1]; FDV 4 mg,1 (16.7) n (%)
same,Retching,[1]; FDV 4 mg,0 n (%)
same,Subjects with any AE,[1]; FDV 4 mg,1 (16.7) n (%)
same,Vomiting,[1]; FDV 4 mg,0 n (%)
same,Abdominal pain,[1]; FDV 16 mg,0 n (%)
same,Diarrhea,[1]; FDV 16 mg,0 n (%)
same,Dizziness,[1]; FDV 16 mg,0 n (%)
same,Flatulence,[1]; FDV 16 mg,0 n (%)
same,Gastrointestinal disorders,[1]; FDV 16 mg,0 n (%)
same,Headache,[1]; FDV 16 mg,0 n (%)
same,Hepatobiliary disorders,[1]; FDV 16 mg,0 n (%)
same,Hyperbilirubinemia,[1]; FDV 16 mg,0 n (%)
same,Jaundice,[1]; FDV 16 mg,0 n (%)
same,Nausea,[1]; FDV 16 mg,0 n (%)
same,Nervous system disorders,[1]; FDV 16 mg,0 n (%)
same,Retching,[1]; FDV 16 mg,0 n (%)
same,Subjects with any AE,[1]; FDV 16 mg,0 n (%)
same,Vomiting,[1]; FDV 16 mg,0 n (%)
same,Abdominal pain,[1]; FDV 48 mg,0 n (%)
same,Diarrhea,[1]; FDV 48 mg,0 n (%)
same,Dizziness,[1]; FDV 48 mg,1 (16.7) n (%)
same,Flatulence,[1]; FDV 48 mg,0 n (%)
same,Gastrointestinal disorders,[1]; FDV 48 mg,0 n (%)
same,Headache,[1]; FDV 48 mg,1 (16.7) n (%)
same,Hepatobiliary disorders,[1]; FDV 48 mg,0 n (%)
same,Hyperbilirubinemia,[1]; FDV 48 mg,0 n (%)
same,Jaundice,[1]; FDV 48 mg,0 n (%)
same,Nausea,[1]; FDV 48 mg,0 n (%)
same,Nervous system disorders,[1]; FDV 48 mg,1 (16.7) n (%)
same,Retching,[1]; FDV 48 mg,0 n (%)
same,Subjects with any AE,[1]; FDV 48 mg,3 (50.0) n (%)
same,Vomiting,[1]; FDV 48 mg,0 n (%)
same,Abdominal pain,[1]; FDV 120 mg,0 n (%)
same,Diarrhea,[1]; FDV 120 mg,1 (16.7) n (%)
same,Dizziness,[1]; FDV 120 mg,0 n (%)
same,Flatulence,[1]; FDV 120 mg,0 n (%)
same,Gastrointestinal disorders,[1]; FDV 120 mg,1 (16.7) n (%)
same,Headache,[1]; FDV 120 mg,0 n (%)
same,Hepatobiliary disorders,[1]; FDV 120 mg,0 n (%)
same,Hyperbilirubinemia,[1]; FDV 120 mg,0 n (%)
same,Jaundice,[1]; FDV 120 mg,0 n (%)
same,Nausea,[1]; FDV 120 mg,0 n (%)
same,Nervous system disorders,[1]; FDV 120 mg,0 n (%)
same,Retching,[1]; FDV 120 mg,0 n (%)
same,Subjects with any AE,[1]; FDV 120 mg,1 (16.7) n (%)
same,Vomiting,[1]; FDV 120 mg,0 n (%)
same,Abdominal pain,[1]; FDV 240 mg,1 (16.7) n (%)
same,Diarrhea,[1]; FDV 240 mg,0 n (%)
same,Dizziness,[1]; FDV 240 mg,0 n (%)
same,Flatulence,[1]; FDV 240 mg,0 n (%)
same,Gastrointestinal disorders,[1]; FDV 240 mg,2 (33.3) n (%)
same,Headache,[1]; FDV 240 mg,2 (33.3) n (%)
same,Hepatobiliary disorders,[1]; FDV 240 mg,0 n (%)
same,Hyperbilirubinemia,[1]; FDV 240 mg,0 n (%)
same,Jaundice,[1]; FDV 240 mg,0 n (%)
same,Nausea,[1]; FDV 240 mg,1 (16.7) n (%)
same,Nervous system disorders,[1]; FDV 240 mg,2 (33.3) n (%)
same,Retching,[1]; FDV 240 mg,0 n (%)
same,Subjects with any AE,[1]; FDV 240 mg,5 (83.3) n (%)
same,Vomiting,[1]; FDV 240 mg,1 (16.7) n (%)
same,Abdominal pain,[1]; FDV 480 mg,0 n (%)
same,Diarrhea,[1]; FDV 480 mg,3 (50.0) n (%)
same,Dizziness,[1]; FDV 480 mg,1 (16.7) n (%)
same,Flatulence,[1]; FDV 480 mg,1 (16.7) n (%)
same,Gastrointestinal disorders,[1]; FDV 480 mg,4 (66.7) n (%)
same,Headache,[1]; FDV 480 mg,3 (50.0) n (%)
same,Hepatobiliary disorders,[1]; FDV 480 mg,2 (33.3) n (%)
same,Hyperbilirubinemia,[1]; FDV 480 mg,2 (33.3) n (%)
same,Jaundice,[1]; FDV 480 mg,0 n (%)
same,Nausea,[1]; FDV 480 mg,2 (33.3) n (%)
same,Nervous system disorders,[1]; FDV 480 mg,4 (66.7) n (%)
same,Retching,[1]; FDV 480 mg,2 (33.3) n (%)
same,Subjects with any AE,[1]; FDV 480 mg,6 (100) n (%)
same,Vomiting,[1]; FDV 480 mg,1 (16.7) n (%)
same,Abdominal pain,[1]; FDV 800 mg,1 (16.7) n (%)
same,Diarrhea,[1]; FDV 800 mg,4 (66.7) n (%)
same,Dizziness,[1]; FDV 800 mg,1 (16.7) n (%)
same,Flatulence,[1]; FDV 800 mg,0 n (%)
same,Gastrointestinal disorders,[1]; FDV 800 mg,4 (66.7) n (%)
same,Headache,[1]; FDV 800 mg,1 (16.7) n (%)
same,Hepatobiliary disorders,[1]; FDV 800 mg,0 n (%)
same,Hyperbilirubinemia,[1]; FDV 800 mg,0 n (%)
same,Jaundice,[1]; FDV 800 mg,0 n (%)
same,Nausea,[1]; FDV 800 mg,1 (16.7) n (%)
same,Nervous system disorders,[1]; FDV 800 mg,1 (16.7) n (%)
same,Retching,[1]; FDV 800 mg,0 n (%)
same,Subjects with any AE,[1]; FDV 800 mg,4 (66.7) n (%)
same,Vomiting,[1]; FDV 800 mg,0 n (%)
same,Abdominal pain,"[1]; FDV 1,200 mg",0 n (%)
same,Diarrhea,"[1]; FDV 1,200 mg",3 (50.0) n (%)
same,Dizziness,"[1]; FDV 1,200 mg",1 (16.7) n (%)
same,Flatulence,"[1]; FDV 1,200 mg",1 (16.7) n (%)
same,Gastrointestinal disorders,"[1]; FDV 1,200 mg",4 (66.7) n (%)
same,Headache,"[1]; FDV 1,200 mg",0 n (%)
same,Hepatobiliary disorders,"[1]; FDV 1,200 mg",5 (83.3) n (%)
same,Hyperbilirubinemia,"[1]; FDV 1,200 mg",5 (83.3) n (%)
same,Nausea,"[1]; FDV 1,200 mg",1 (16.7) n (%)
same,Nervous system disorders,"[1]; FDV 1,200 mg",1 (16.7) n (%)
same,Retching,"[1]; FDV 1,200 mg",1 (16.7) n (%)
same,Subjects with any AE,"[1]; FDV 1,200 mg",6 (100) n (%)
same,Vomiting,"[1]; FDV 1,200 mg",0 n (%)
same,Jaundice,"[1]; FDV 1,200 mg, mild transient jaundice of the skin and sclera",1 (16.7) ^b n (%)
same,Severe vomiting,[1]; FDV 240-mg dose group,one subject
same,Subjects with an AE after treatment with FDV,"[1]; Part 1, all FDV dose groups",26 subjects out of 48
same,Subjects with AEs with a possible relationship to the study drug according to the investigator,"[1]; Part 1, receiving FDV",19 subjects
same,Subjects with marked hyperbilirubinemia (>3.0 mg/dL),"[1]; all dose groups, Part 1",seven subjects
same,Serious AEs,[1]; during the study (both parts),no serious AEs were reported; also recorded: No serious AEs occurred
same,Tolerability,"[1]; oral solution, single doses 4–1,200 mg",generally well tolerated
same,"Changes in alanine transaminase, hemoglobin, or neutrophil count",[1]; subjects with hyperbilirubinemia or elevated total bilirubin,no clinically relevant changes
same,"Changes in vital signs, ECGs, or medical examinations",[1]; whole study,No clinically relevant changes
same,Subjects with slight elevations of direct bilirubin,"[1]; whole study, groups not specified",14 subjects
same,Effect on CYP2C9,CYP2C9,inhibitory effects

# From article PMC12440775 (Frontiers in Pharmacology, 2025)
